≈ marks a conversion by molar mass, not a printed value.
Experiments:
Test in all cases: In vitro antibacterial evaluation: minimum inhibitory concentration (MIC), broth dilution method
Assay type in all cases: cell-based
[1] = tested on: Enterococcus sp.; details: broth dilution, 18 hours at 35° C.
Method in brief: (§1)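 First, organisms are seeded at 5×10^5 CFU/mL into Muller-Hinton II […]. Next, antibiotic is applied across 64-0.06 μg/mL by broth dilution (NCCLS M7-A2). Finally, the lowest inhibitory concentration is recorded as MIC.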

[2] = tested on: Staphylococcus sp.; details: broth dilution, 18 hours at 35° C.; for MIC Staphylococcus aureus-SMITH (GC 4543): strain SMITH GC 4543
Method in brief: as §1

[3] = tested on: Streptococcus sp.; details: broth dilution, 18 hours at 35° C.
Method in brief: as §1

[4] = tested on: Escherichia coli; details: broth dilution, 18 hours at 35° C.
[5] = Enterococcus faecalis (ATCC 29212)
[6] = Enterococcus faecalis (GC 2242)
[7] = Enterococcus faecalis (GC 2691)
[8] = Enterococcus faecalis (GC 3059)
[9] = Enterococcus faecalis (GC 4552)
[10] = Enterococcus faecalis (GC 4553)
[11] = Enterococcus faecalis (GC 4554)
[12] = Enterococcus faecalis (GC 6189)
[13] = Streptococcus agalactiae (GC 4564)
[14] = Streptococcus pneumoniae (ATCC 6301)
[15] = Streptococcus pneumoniae (GC 1894)
[16] = Streptococcus pneumoniae (GC 4565)
[17] = Streptococcus pyogenes (GC 4563)

CC(c1ccccc1)C1NC(=O)CNC(=O)C(CO)NC(=O)C(C(O)C2CNC(=N)N2C2OC(CO)C(O)C(O)C2O)NC(=O)C(C(O)C2CNC(=N)N2)NC(=O)C(Cc2ccc3oc(SCC(=O)c4ccccc4)nc3c2)NC1=O (stereo not shown) [Example 48] was tested. Which “MIC Enterococcus avium (GC 4558)” value ([1]; Enterococcus avium (GC 4558)) did it give?
Its value is 8 µg/mL (≈ 6.98 µM).

What about the “MIC Enterococcus faecalis (ATCC 29212)” value [1, 5] of the same compound?
The value was 64 µg/mL (≈ 55.8 µM).

What about the “MIC Enterococcus faecalis (GC 2242)” value [1, 6] of the same compound?
Its value is 64 µg/mL (≈ 55.8 µM).

And the “MIC Enterococcus faecalis (GC 2691)” value [1, 7]?
The value was 64 µg/mL (≈ 55.8 µM).

And the “MIC Enterococcus faecalis (GC 3059)” value [1, 8]?
The value was 64 µg/mL (≈ 55.8 µM).

What about the “MIC Enterococcus faecalis (GC 4552)” value [1, 9] of the same compound?
Its value is 64 µg/mL (≈ 55.8 µM).

What about the “MIC Enterococcus faecalis (GC 4553)” value [1, 10] of the same compound?
Its value is 16 µg/mL (≈ 14 µM).

What about the “MIC Enterococcus faecalis (GC 4554)” value [1, 11] of the same compound?
The value was 64 µg/mL (≈ 55.8 µM).

What about the “MIC Enterococcus faecalis (GC 6189)” value [1, 12] of the same compound?
The value was 64 µg/mL (≈ 55.8 µM).

What about the “MIC Enterococcus faecium (GC 2243)” value ([1]; Enterococcus faecium (GC 2243)) of the same compound?
Its value is 16 µg/mL (≈ 14 µM).

And the “MIC Enterococcus faecium (GC 4556)” value ([1]; Enterococcus faecium (GC 4556))?
Its value is 64 µg/mL (≈ 55.8 µM).

And the “MIC Enterococcus faecium (GC 4557)” value ([1]; Enterococcus faecium (GC 4557))?
The value was 4 µg/mL (≈ 3.49 µM).

What about the “MIC Enterococcus avium (GC 4558)” value [1] of the same compound?
Its value is 8 µg/mL (≈ 6.98 µM).

What about the “MIC Enterococcus faecalis (ATCC 29212)” value [1] of the same compound?
Its value is 64 µg/mL (≈ 55.8 µM).

What about the “MIC Enterococcus faecalis (GC 2242)” value [1] of the same compound?
The value was 64 µg/mL (≈ 55.8 µM).

What about the “MIC Enterococcus faecalis (GC 2691)” value [1] of the same compound?
The value was 64 µg/mL (≈ 55.8 µM).

What about the “MIC Enterococcus faecalis (GC 3059)” value [1] of the same compound?
Its value is 64 µg/mL (≈ 55.8 µM).

What about the “MIC Enterococcus faecalis (GC 4552)” value [1] of the same compound?
The value was 64 µg/mL (≈ 55.8 µM).

What about the “MIC Enterococcus faecalis (GC 4553)” value [1] of the same compound?
The value was 16 µg/mL (≈ 14 µM).

What about the “MIC Enterococcus faecalis (GC 4554)” value [1] of the same compound?
Its value is 64 µg/mL (≈ 55.8 µM).

And the “MIC Enterococcus faecalis (GC 6189)” value [1]?
Its value is 64 µg/mL (≈ 55.8 µM).

And the “MIC Enterococcus faecium (GC 2243)” value [1]?
The value was 16 µg/mL (≈ 14 µM).

What about the “MIC Enterococcus faecium (GC 4556)” value [1] of the same compound?
The value was 64 µg/mL (≈ 55.8 µM).

And the “MIC Enterococcus faecium (GC 4557)” value [1]?
The value was 4 µg/mL (≈ 3.49 µM).

What about the “MIC Coagulase Negative Staphylococcus (GC 4547)” value [2] of the same compound?
Its value is 4 µg/mL (≈ 3.49 µM).

What about the “MIC Coagulase Negative Staphylococcus (GC 4548)” value [2] of the same compound?
Its value is 8 µg/mL (≈ 6.98 µM).

What about the “MIC Coagulase Negative Staphylococcus (GC 4549)” value [2] of the same compound?
The value was 4 µg/mL (≈ 3.49 µM).

And the “MIC Coagulase Negative Staphylococcus (GC 4551)” value [2]?
Its value is 16 µg/mL (≈ 14 µM).

What about the “MIC Staphylococcus aureus SMITH (GC 4543)” value [2] of the same compound?
Its value is 16 µg/mL (≈ 14 µM).

What about the “MIC Staphylococcus haemolyticus (GC 4546)” value [2] of the same compound?
Its value is 8 µg/mL (≈ 6.98 µM).

What about the “MIC Staphylococcus aureus-SMITH (GC 4543)” value [2] of the same compound?
The value was 16 µg/mL (≈ 14 µM).

What about the “MIC Streptococcus agalactiae (GC 4564)” value [3, 13] of the same compound?
The value was 16 µg/mL (≈ 14 µM).

And the “MIC Streptococcus pneumoniae (ATCC 6301)” value [3, 14]?
The value was 16 µg/mL (≈ 14 µM).

What about the “MIC Streptococcus pneumoniae (GC 1894)” value [3, 15] of the same compound?
Its value is 8 µg/mL (≈ 6.98 µM).

What about the “MIC Streptococcus pneumoniae (GC 4565)” value [3, 16] of the same compound?
Its value is 32 µg/mL (≈ 27.9 µM).

And the “MIC Streptococcus pyogenes (GC 4563)” value [3, 17]?
The value was 8 µg/mL (≈ 6.98 µM).

And the “MIC Streptococcus agalactiae (GC 4564)” value [3]?
Its value is 16 µg/mL (≈ 14 µM).

And the “MIC Streptococcus pneumoniae (ATCC 6301)” value [3]?
Its value is 16 µg/mL (≈ 14 µM).

And the “MIC Streptococcus pneumoniae (GC 1894)” value [3]?
The value was 8 µg/mL (≈ 6.98 µM).

What about the “MIC Streptococcus pneumoniae (GC 4565)” value [3] of the same compound?
Its value is 32 µg/mL (≈ 27.9 µM).

And the “MIC Streptococcus pyogenes (GC 4563)” value [3]?
Its value is 8 µg/mL (≈ 6.98 µM).

What about the “MIC Escherichia coli (ATCC 25922)” value [4] of the same compound?
Its value is 32 µg/mL (≈ 27.9 µM).

And the “MIC Escherichia coli (GC 4559)” value [4]?
Its value is 32 µg/mL (≈ 27.9 µM).

What about the “MIC Escherichia coli (GC 4560)” value [4] of the same compound?
The value was 4 µg/mL (≈ 3.49 µM).

For CC(c1ccccc1)C1NC(=O)CNC(=O)C(CO)NC(=O)C(C(O)C2CNC(=N)N2C2OC(CO)C(O)C(O)C2O)NC(=O)C(C(O)C2CNC(=N)N2)NC(=O)C(Cc2ccc3oc(SCC(=O)c4ccc(Cl)cc4)nc3c2)NC1=O (stereo not shown) [Example 49], which “MIC Enterococcus avium (GC 4558)” value ([1]; Enterococcus avium (GC 4558)) is on record?
The value was 4 µg/mL (≈ 3.39 µM).

And the “MIC Enterococcus faecalis (ATCC 29212)” value [1, 5]?
The value was 16 µg/mL (≈ 13.6 µM).

What about the “MIC Enterococcus faecalis (GC 2242)” value [1, 6] of the same compound?
The value was 16 µg/mL (≈ 13.6 µM).

And the “MIC Enterococcus faecalis (GC 2691)” value [1, 7]?
Its value is 16 µg/mL (≈ 13.6 µM).

What about the “MIC Enterococcus faecalis (GC 3059)” value [1, 8] of the same compound?
Its value is 32 µg/mL (≈ 27.1 µM).

What about the “MIC Enterococcus faecalis (GC 4552)” value [1, 9] of the same compound?
Its value is 2 µg/mL (≈ 1.69 µM).

And the “MIC Enterococcus faecalis (GC 4553)” value [1, 10]?
Its value is 4 µg/mL (≈ 3.39 µM).

And the “MIC Enterococcus faecalis (GC 4554)” value [1, 11]?
The value was 16 µg/mL (≈ 13.6 µM).

What about the “MIC Enterococcus faecalis (GC 6189)” value [1, 12] of the same compound?
Its value is 16 µg/mL (≈ 13.6 µM).

And the “MIC Enterococcus faecium (GC 2243)” value ([1]; Enterococcus faecium (GC 2243))?
Its value is 8 µg/mL (≈ 6.78 µM).

And the “MIC Enterococcus faecium (GC 4556)” value ([1]; Enterococcus faecium (GC 4556))?
The value was 8 µg/mL (≈ 6.78 µM).

What about the “MIC Enterococcus faecium (GC 4557)” value ([1]; Enterococcus faecium (GC 4557)) of the same compound?
The value was 2 µg/mL (≈ 1.69 µM).

What about the “MIC Enterococcus avium (GC 4558)” value [1] of the same compound?
Its value is 4 µg/mL (≈ 3.39 µM).

What about the “MIC Enterococcus faecalis (ATCC 29212)” value [1] of the same compound?
The value was 16 µg/mL (≈ 13.6 µM).

And the “MIC Enterococcus faecalis (GC 2242)” value [1]?
The value was 16 µg/mL (≈ 13.6 µM).

What about the “MIC Enterococcus faecalis (GC 2691)” value [1] of the same compound?
Its value is 16 µg/mL (≈ 13.6 µM).

And the “MIC Enterococcus faecalis (GC 3059)” value [1]?
Its value is 32 µg/mL (≈ 27.1 µM).

And the “MIC Enterococcus faecalis (GC 4552)” value [1]?
The value was 2 µg/mL (≈ 1.69 µM).

And the “MIC Enterococcus faecalis (GC 4553)” value [1]?
The value was 4 µg/mL (≈ 3.39 µM).

And the “MIC Enterococcus faecalis (GC 4554)” value [1]?
The value was 16 µg/mL (≈ 13.6 µM).

And the “MIC Enterococcus faecalis (GC 6189)” value [1]?
The value was 16 µg/mL (≈ 13.6 µM).

And the “MIC Enterococcus faecium (GC 2243)” value [1]?
Its value is 8 µg/mL (≈ 6.78 µM).

What about the “MIC Enterococcus faecium (GC 4556)” value [1] of the same compound?
Its value is 8 µg/mL (≈ 6.78 µM).

What about the “MIC Enterococcus faecium (GC 4557)” value [1] of the same compound?
The value was 2 µg/mL (≈ 1.69 µM).

What about the “MIC Coagulase Negative Staphylococcus (GC 4547)” value [2] of the same compound?
The value was 4 µg/mL (≈ 3.39 µM).

And the “MIC Coagulase Negative Staphylococcus (GC 4548)” value [2]?
Its value is 2 µg/mL (≈ 1.69 µM).

And the “MIC Coagulase Negative Staphylococcus (GC 4549)” value [2]?
Its value is 1 µg/mL (≈ 0.847 µM).

And the “MIC Coagulase Negative Staphylococcus (GC 4551)” value [2]?
The value was 4 µg/mL (≈ 3.39 µM).

What about the “MIC Staphylococcus aureus SMITH (GC 4543)” value [2] of the same compound?
The value was 2 µg/mL (≈ 1.69 µM).

What about the “MIC Staphylococcus haemolyticus (GC 4546)” value [2] of the same compound?
Its value is 1 µg/mL (≈ 0.847 µM).

What about the “MIC Staphylococcus aureus-SMITH (GC 4543)” value [2] of the same compound?
Its value is 2 µg/mL (≈ 1.69 µM).

What about the “MIC Streptococcus agalactiae (GC 4564)” value [3, 13] of the same compound?
The value was 4 µg/mL (≈ 3.39 µM).

And the “MIC Streptococcus pneumoniae (ATCC 6301)” value [3, 14]?
The value was 8 µg/mL (≈ 6.78 µM).

What about the “MIC Streptococcus pneumoniae (GC 1894)” value [3, 15] of the same compound?
The value was 8 µg/mL (≈ 6.78 µM).

And the “MIC Streptococcus pneumoniae (GC 4565)” value [3, 16]?
Its value is 8 µg/mL (≈ 6.78 µM).

What about the “MIC Streptococcus pyogenes (GC 4563)” value [3, 17] of the same compound?
The value was 2 µg/mL (≈ 1.69 µM).

And the “MIC Streptococcus agalactiae (GC 4564)” value [3]?
The value was 4 µg/mL (≈ 3.39 µM).

What about the “MIC Streptococcus pneumoniae (ATCC 6301)” value [3] of the same compound?
The value was 8 µg/mL (≈ 6.78 µM).

What about the “MIC Streptococcus pneumoniae (GC 1894)” value [3] of the same compound?
Its value is 8 µg/mL (≈ 6.78 µM).

And the “MIC Streptococcus pneumoniae (GC 4565)” value [3]?
Its value is 8 µg/mL (≈ 6.78 µM).

And the “MIC Streptococcus pyogenes (GC 4563)” value [3]?
The value was 2 µg/mL (≈ 1.69 µM).

What about the “MIC Escherichia coli (ATCC 25922)” value [4] of the same compound?
Its value is 16 µg/mL (≈ 13.6 µM).

And the “MIC Escherichia coli (GC 4559)” value [4]?
Its value is 8 µg/mL (≈ 6.78 µM).

What about the “MIC Escherichia coli (GC 4560)” value [4] of the same compound?
The value was 4 µg/mL (≈ 3.39 µM).

From US8247211B2, “Glycopeptide antibiotics” (American Cyanamid Company, priority 2001, dated 2012)
